Assay results from PubChem BioAssay (NCI).
“And” between values parts separate entries of the source, which are not always exact repeats. Equal entries are not always repeated.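 Five compound concentrations were applied to cells in 96-well plates for 48 hours; endpoints were derived by simple linear interpolation of the resulting dose-response curve. Here, GI50 denotes the concentration required for 50% inhibition of growth. The concentration for full growth arrest is given as TGI.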

Key:
Test in all cases: inhibition of tumour cell growth, NCI panel, 48 h
SN12C renal = test system: SN12C renal
COLO 205 colon = test system: COLO 205 colon
NCI-H460 lung = test system: NCI-H460 lung
SF-268 CNS = test system: SF-268 CNS
T-47D breast = test system: T-47D breast
OVCAR-5 ovarian = test system: OVCAR-5 ovarian
HOP-92 NSCLC = test system: HOP-92 NSCLC
MALME-3M melanoma = test system: MALME-3M melanoma
DMS 273 small cell lung = test system: DMS 273 small cell lung
M19-MEL melanoma = test system: M19-MEL melanoma

SMILES | TGI (SN12C renal) [µM] | TGI (COLO 205 colon) | TGI (NCI-H460 lung) [µM] | TGI (SF-268 CNS) [µM] | TGI (T-47D breast) [µM] | TGI (OVCAR-5 ovarian) [µM] | TGI (HOP-92 NSCLC) | TGI (MALME-3M melanoma) | GI50 (SN12C renal) | GI50 (COLO 205 colon) | GI50 (NCI-H460 lung) | GI50 (SF-268 CNS) | GI50 (T-47D breast) | GI50 (OVCAR-5 ovarian) | GI50 (HOP-92 NSCLC) | GI50 (MALME-3M melanoma) | TGI (DMS 273 small cell lung) [µM] | TGI (M19-MEL melanoma) [µM]
CCCCCCCCCCCCCCCCCCOCC(CCP(=O)(CP(=O)(O)O)Oc1ccccc1)OCCCCCCCCCCCCCCCCCC (centres undefined) | > 100 | > 100 µM | > 100 | > 100 | > 100 | > 100 | > 100 µM | > 100 µM |  |  |  |  |  |  |  |  |  | 
COc1cc(-c2csc(NC(=O)Nc3ccc(C(F)(F)F)cc3)n2)cc(OC)c1OC | 8.89 | 4.5 µM | 7.01 | 13.7 | 7.65 | 9.9 | 4.73 µM | 4.94 µM | 2.62 µM | 2.1 µM | 2.52 µM | 2.92 µM | 1.97 µM | 2.64 µM | 1.61 µM | 1.85 µM |  | 
C/C(=C\c1cc(C(F)(F)F)n(-c2ccc(N)cc2)n1)[C@@H]1C[C@@H]2O[C@]2(C)CCC[C@H](C)[C@H](O)[C@@H](C)C(=O)C(C)(C)[C@@H](O)CC(=O)O1 | > 11.1 | 0.582 µM | > 5.06 | > 11.1 | > 11.1 | > 11.1 | > 11.1 µM | > 11.1 µM | 0.396 µM | 0.0162 µM | 0.00733 µM | 0.0502 µM | 0.0542 µM | 0.0488 µM | 0.258 µM | 0.089 µM |  | 
C=C1C(=O)O[C@H]2[C@H]1CC/C(COC(=O)C(C)c1ccc(CC(C)C)cc1)=C\CC[C@@]1(C)O[C@@H]21 (some centres undefined) | 2.72 | 4.1 µM | 3.16 | 3.5 | 4.43 | 3.46 | 2.14 µM | 2.99 µM | 1.34 µM | 1.91 µM | 1.56 µM | 1.72 µM | 1.72 µM | 1.8 µM | 0.747 µM | 1.56 µM |  | 
CC(=O)c1c(CO[N+](=O)[O-])n([O-])c2ccccc2[n+]1=O | > 100 | > 100 µM | > 100 | > 100 | > 100 | > 100 | > 100 µM | > 100 µM |  |  |  |  |  |  |  |  |  | 
Cc1cccc2c1CCC21OC(=O)c2c1ccc1ccccc21 (centres undefined) | > 100 | > 100 µM | > 100 | > 100 |  | > 100 |  | 75.5 µM |  |  |  |  |  |  |  |  | 91.5 | > 100
Cc1ccc(NS(=O)(=O)c2cccc(C#N)c2)c2[nH]cc(C#N)c12 | > 94.7 | 53.7 µM and 37.3 µM | > 100 | > 100 | > 86.4 | > 92.7 | 38.1 µM and 48.2 µM | 57.1 µM and 68.2 µM | 25.5 µM and 27.3 µM | 14.2 µM and 1.51 µM | 18.1 µM and 22.6 µM | 35 µM and 30.9 µM | 5.21 µM and 10.2 µM | 16.7 µM and 30.6 µM | 7.78 µM and 12.8 µM | 15.5 µM and 12.9 µM |  | 
O=C1/C(=C/c2ccc(Cl)cc2)CCC/C1=C\c1ccc(Cl)cc1 | > 100 | > 100 µM | > 100 | 12.7 | > 100 | > 100 | > 100 µM | > 100 µM | 6.06 µM | 4.17 µM | 6.93 µM | 3.24 µM | 8.76 µM | > 100 µM | > 100 µM | > 100 µM |  | 
